One assay has as its system Serca1 exon 22 splicing. Nature of the assay: Semi-quantitative RT-PCR of Serca1 splicing in HSA LR mouse skeletal muscle. It counts as in vivo. Conditions: three days a/i. How it is done: FIG. 8. Recovering of disease phenotypes (molecular, histological and functional) in in vivo DM1 mice (HSA^LR). Upper section: VLT002 and VLT025 suppressed splicing defects in DM1 mouse skeletal muscles. VLT002 (10 μg) and VLT025 (100 μg) were intramuscular injected in the right tibialis anterior (TA) and left quadriceps (Q), respectively, of HSA^LR mice that expressed 300 CTG repeats. […] All graphs show the mean and SEM from VLT002 and VLT025-responsive animals. Middle section: Immunofluorescent detection of trans-membrane Clcn1 protein (cell outlines in gray) in quadriceps sections of no-DM1 mouse (control) and HSA^LR mice without treatment (10150.5 QD-DMSO treated) and after VLT025 treatment (10150.5 QI).
Additional assays involved: • Reverse Transcription-PCR (RT-PCR) to detect levels of normal/aberrant splicing events in specific genes. […] Serca 1, Cypher or cTNNT genes reverse transcription were performed and quantification of normal/aberrant spliced band forms was obtained (ImageJ software) after running PCR products in 2% agarose gels. […] Muscle area was quantified (see FIG. 3) by binarizing images (equal dimensions) and quantifying pixels (%) within muscle tissue with ImageJ software. […] A minimum of 8 flies were analyzed in each case.

The next assay relates to FAM-(CUG)10 RNA. As to the kind of experiment: Gel retardation assay (fluorescence EMSA) with FAM-(CUG)10. The assay is classed as binding. How it is done: FIG. 6. Study of the binding of some compounds of Formula I (VLT002, VLT025 and VLT026) to FAM-(CUG)10 (repeat tract present in DM1, HDL2, SCA8 diseases) by means of gel retardation assays.
Fluorescence Electrophoretic Mobility Shift Assay to test RNA-compound binding. Briefly, an aliquot of carboxyfluorescein (FAM)-CUG10 RNA (DM1, HDL2, SCA8; see FIG. 6) was heated at 70° C. for 5 min and diluted to 300 nM. The binding reaction with compounds was then carried out as described in (Garcia-Lopez A et al. Proc. Natl. Acad. Sci. USA. 108(29):11866-71 (2011)). The reaction mix was loaded onto 8% polyacrylamide nondenaturing gels, and electrophoresis was conducted at 4° C. in TB 1× for approximately 30 min at 240V, followed by fluorescence visualization. Quantification of the free RNA band intensity was carried out using the ImageJ software. A non-linear regression analysis was used to calculate EC50, based on a total of three experimental replicates. Same approach was developed with (FAM)-CCUG8 (DM2), CAG10 (SCA3), CGG10 (FXTAS), GGGGCC5 (ALS/FSD), UGGAA6 (SCA31) probes (see FIG. 9).
For orientation: In EMSA bound probe runs differently from free probe, usually more slowly.

The next assay relates to MBNL1. As to the kind of experiment: Visualization and quantification of MBNL1 release in DM1 fibroblasts. The assay is classed as cell-based, human. Conditions: 100 μM. How it is done:
FIG. 4. Visualization and quantification of MBNL1 release (A). Visualization of MBNL1 release for VLT002: Upper row: Untreated DM1 fibroblasts with MBNL1 localizing as ribonuclear foci (see dots in middle and right pictures) to the nucleus (DAPI, detected as gray spherical shadow in left and right pictures). […] (B) Quantification of the area (into the nucleus), where MBNL1 present (Photoshop software), reflects the MBNL1 release after VLT002, VLT025, VLT045, VLT049 and VLT040 treatment (100 μM).
At the same time human cells were recollected for foci counting. Some (150,000-300,000) were prepared for Muscleblind (MBNL1) detection (see FIG. 4). After PBS washes, cells were probed overnight, at 4° C. with anti-MBNL1 antibody (1:5000 dilutions, A2764 antibody) in 1×PBS. After washing cells with 1×PBS, cells were incubated with goat anti-rabbit Alexa 488 (1:500 dilution) for 2 h at RT. Cells were washed 2 times, for 10 min at room temperature with 1×PBS and then mounted onto glass slides using a hard-set mounting media that contains DAPI (Vectashield). Cells were imaged on a Leica microscope.

Entries after “also recorded” stand apart in the source; their conditions may differ.

On to `CN(C)CCc1cc2c(c3c1ccc1ccccc13)OCO2` [VLT002, Stephenanthrine], for which the “splicing defects (exon 22) of Serca1” value with Serca1 exon 22 splicing (10 μg intramuscular, right tibialis anterior) was “partially reversed splicing defects”. For the same molecule, in the assay on FAM-(CUG)10 RNA, the “binding to FAM-CUG10” value is “bind to FAM-CUG10”. In the assay on MBNL1, the “MBNL1 sequestration / MBNL1 release (nuclear area where MBNL1 present)” value was “MBNL1 sequestration is relieved; also recorded: relieve MBNL1 sequestration” and the “formation of foci (MBNL1 ribonuclear foci)” value is reported as “reduced formation of the foci; also recorded: effectively reduce the formation of foci”.

Turning to `C[N+](C)(C)CCc1cc2c(c3c1ccc1ccccc13)OCO2` [VLT025], the “splicing defects (exon 22) of Serca1” value in the assay on Serca1 exon 22 splicing (100 μg intramuscular, left quadriceps) is on record as “partially reversed splicing defects”. Besides, the “binding to FAM-CUG10” value in the assay with FAM-(CUG)10 RNA is “bind to FAM-CUG10”. Further, in the assay on MBNL1, the “MBNL1 sequestration / MBNL1 release (nuclear area where MBNL1 present)” value is “relieve MBNL1 sequestration” and the “formation of foci (MBNL1 ribonuclear foci)” value is recorded as “effectively reduce the formation of foci”.

The record behind these values is patent US20160194274A1, “PHENANTHRENE DERIVATIVES FOR USE AS MEDICAMENTS” (VALENTIA BIOPHARMA, priority 2012, published 2016).
